Measurements as given in patent publication US10449213B2, “Combinatorial approach to treating Alzheimer's disease” (Florida State University Research Foundation, Inc., priority 2011, dated 2019).
Like-named read-outs stand apart in the source and are kept apart here.

Experiments:
[1] = target: T1, Aβ(1-40) (Homo sapiens, UniProt P05067); assay: Surface plasmon resonance (Biacore T-200), immobilized Aβ(1-40); settings: freshly prepared Aβ(1-40) immobilized on CM5 chip, 25° C., fit to 1:1 binding model; read-out: binding constant (SPR)
T1 construct: Synthetic Aβ(1-40) peptide was purchased from Biopeptide, Inc; purchased Biopeptide, Inc; host or cells: chemical synthesis
T1 sequence (P05067 672-711 limits assumed): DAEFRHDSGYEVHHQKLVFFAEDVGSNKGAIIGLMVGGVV
Experimental: Surface Plasmon Resonance (SPR) Experiments. The binding of Aβ(1-40) and vitamin B12 was analyzed by SPR using a Biacore T-200 optical biosensor (Biacore/GE Healthcare). The Aβ peptide was immobilized on CM5 sensor chips using amine coupling chemistry. Briefly, the carboxymethyl dextran surface of a CM5 sensor chip was activated with a 1:1 mixture of 0.4 M 1-ethyl-3-(3-dimethylaminopropyl)-carbodiimide (EDC) and 0.1 M N-hydroxysuccinimide (NHS) at 25° C. A peptide surface (400-800 RU) was created by pulsing Aβ in 10 mM sodium acetate at pH 4.5 over the flow cell. The remaining binding sites on the dextran surface were blocked with […], pH 8.5. A reference surface was activated and blocked as outlined above.
Binding experiments were carried out using HBS-EP+ running buffer (0.1 M Hepes, 1.5 M NaCl, 30 mM EDTA, 0.05% v/v surfactant P-20, pH 7.4) at 25° C. All components were 0.22 μm-filtered prior to use. […] Data were analyzed using T200 BiaEvaluation 1.0 (Biacore) software and fit to a 1:1 binding model.
In the SPR experiments, freshly prepared Aβ(1-40) was immobilized on a chip. […] Referring to FIG. 7, a concentration dependent change in the refractive index at the surface of the chip was detected. This change, reflective of the Aβ peptide/B12 interaction, was monitored in real time. […]

[2] = tested on: hippocampal neurons; assay: Aβ-induced neuronal cell death in hippocampal cell culture, Trypan Blue counting; format: cell-based, Wistar rat; settings: pre-aggregated Aβ(1-40) 25 μM, B12 50, 25 or 12.5 μM, 72 hours
Experimental: Neuronal Cell Culture Experiments. Neuronal cell culture experiments were conducted using methodologies described previously by Lee, et al in Cell, Vol. 111(2), pages 219-230 (2002); Lei, et al in EMBO J, Vol. 21(12), pages 2977-2989 (2002); Xin, et al in J Neurosci, Vol. 25(1), pages 139-48 (2005); and Xin, et al in European Journal of Neuroscience, Vol. 21(3), pages 622-636 (2005).
Briefly, hippocampal tissue was dissected from Wistar rat embryos (18 days gestation or E18) at 4° C. Dissociated hippocampal neurons were plated at a density of approximately 2.0×10^4 cells/cm^2 onto 35 mm culture dishes coated with poly-D-lysine. Neurons were matured in culture for 21 days in vitro in NEUROBASAL® media (Invitrogen) supplemented with B27 (2%), bFGF2 (2 ng/mL) and L-glutamine (0.5 mM). The Aβ(1-40) was dissolved in DMSO, followed by dilution into culture medium (final DMSO concentration was 1%), and incubation at 37° C. for three days to form Aβ(1-40) oligomeric species. […]
Trypan Blue Staining and Cell Counting. […] Five random fields, one from each corner and one from the center of the dish, were counted for both live and dead cells at 63× magnification to obtain a percentage of cell death. […]
The physiological relevance of the B12/Aβ interaction was evaluated using neuronal cell culture experiments. […]

[3] = target: T2, Aβ(1-40) peptide (Homo sapiens, UniProt P05067); assay: Intrinsic tyrosine fluorescence titration of Aβ(1-40) with vitamin B12; settings: 50 μM in PBS, 25° C., 1:1 binding stoichiometry, read-out: binding constant, KD
T2 construct: Synthetic Aβ(1-40) peptide was purchased from Biopeptide, Inc; purchased Biopeptide, Inc; host or cells: chemical synthesis
T2 sequence (P05067 672-711 limits assumed): as above
Experimental: Samples of Aβ(1-40) were reconstituted in phosphate buffer saline (PBS) (137 mM NaCl, 2.7 mM KCl, 10 mM Na2HPO4, 2 mM KH2PO4, pH 7.4), except in surface plasmon resonance experiments, as described below. Immediately after reconstitution into PBS, the pH of the solution was adjusted to 10, allowing for solubilization of the peptide. The pH was then readjusted to 7.4, followed by filtration through a 0.22 μm supor membrane filter. Concentrations of Aβ(1-40) were determined using UV-Vis spectroscopy (Cary 300 spectrophotometer, Varian, Inc) and an extinction coefficient of 1,490 M^−1 cm^−1 at 280 nm. Aβ(1-40) samples used in fluorescence experiments to examine peptide/B12 binding included freshly prepared, monomeric Aβ species and “aged” Aβ, incubated for seven days and containing high-molecular weight species.
Preparation of Vitamin B12 Samples. […] Concentrations of B12 were determined using UV-Vis spectroscopy (Cary300 spectrophotometer, Varian, Inc) and an extinction coefficient of 4,900 M^−1 cm^−1 at 525 nm.
Intrinsic Tyrosine Fluorescence Spectroscopy Experiments on Amyloid-Beta Peptide in the Presence of Vitamin B12. Intrinsic tyrosine fluorescence was measured as previously described by Lakowicz in Principles of Fluorescence Spectroscopy. […] The binding constant, KD, was calculated using equation (1) in SigmaPlot 9.0 (Systat Software, Inc.) assuming 1:1 binding stoichiometry. […]

[4] = target: T2, Aβ(1-40) peptide; assay: Thioflavin T fluorescence, fibril formation by Aβ(1-40); format: biochemical; settings: Aβ(1-40) 30 μM, 37° C.
Experimental: Thioflavin T Fluorescence Spectroscopy Experiments on Amyloid-Beta Peptide in the Presence of Vitamin B12. The Fluorescence signal was measured as previously described using a Biotek Flx800 fluorescence microplate reader. Aβ(1-40) peptide samples (30 μM) were incubated at 37° C. in the presence or absence of B12. Following incubation, ThT was added to a final concentration of 10 μM as a probe for fibril formation by Aβ(1-40). All fluoresce readings were corrected for 10 mM sodium phosphate buffer contribution. Thioflavin T (ThT) (Sigma Aldrich) was reconstituted in Nanopure water, aliquoted, and stored at −20° C. Concentration of ThT was determined using UV-Vis spectroscopy (Cary300 spectrophotometer, Varian, Inc) and an extinction coefficient of 36,000 M^−1 cm^−1 at 412 nm.

C/C1=C2/[N-][C@H]([C@H](CC(N)=O)[C@@]2(C)CCC(=O)NC[C@@H](C)OP(=O)([O-])O[C@H]2[C@@H](O)[C@@H](n3cnc4cc(C)c(C)cc43)O[C@@H]2CO)[C@]2(C)N=C(/C(C)=C3N=C(/C=C4N=C1[C@@H](CCC(N)=O)C\4(C)C)[C@@H](CCC(N)=O)[C@]\3(C)CC(N)=O)[C@@H](CCC(N)=O)[C@]2(C)CC(N)=O.[Co+3].[OH-] [vitamin B12, hydroxocobalamin]
Kd [1]: 132 µM
neuronal cell death upon addition of amyloid-beta peptide [2]: alleviated
Kd ([3]; monomeric (freshly prepared) Aβ(1-40)): 87 ± 2.7 µM
Kd ([3]; self-associated (aged, seven days) Aβ(1-40)): 96.1 ± 3.5 µM
ThT fluorescence after addition to pre-formed Aβ(1-40) aggregates (fibril dissociation) ([4]; B12 added to fibrils formed in its absence): reduction of the ThT fluorescence
ThT fluorescence signal of Aβ(1-40) incubated in the presence of vitamin B12 (self-association) ([4]; incubated with B12): no increase in the ThT fluorescence signal
